Experimental data reported in patent publication US20250263370A1 (Tay Therapeutics Limited, priority 2022, published 2025).
“And” between values parts separate entries of the source, which are not always exact repeats. Equal values may be shown once.

Tested on: collagen-induced arthritis
Assay: Collagen-induced arthritis (CIA) model in rats: body weight, paw volume, clinical scores, clinical observations; as to Average detailed clinical score, left hind limb: key of the grades not given here; as to Average detailed clinical score, right hind limb: key of the grades not given here; as to Detailed Clinical Scores, left forelimb: key of the grades not given here; as to Detailed Clinical Scores, left hind limb: key of the grades not given here; as to Detailed Clinical Scores, right forelimb: key of the grades not given here; as to Detailed Clinical Scores, right hind limb: key of the grades not given here; as to Detailed Clinical Scores, score: key of the grades not given here; as to Detailed Clinical Scores: left forelimb: key of the grades not given here; as to Detailed Clinical Scores: left hind limb: key of the grades not given here; as to Detailed Clinical Scores: right forelimb: key of the grades not given here; as to Detailed Clinical Scores: right hind limb: key of the grades not given here; as to Detailed Clinical Scores: score: key of the grades not given here; as to Mean overall clinical score ± SD: key of the grades not given here; as to overall clinical score: key of the grades not given here
Settings: for Average detailed clinical score, left forelimb / Average detailed clinical score, left hind limb / Average detailed clinical score, right forelimb / Average detailed clinical score, right hind limb / Average detailed clinical score, score / Mean overall clinical score ± SD / Detailed Clinical Scores, left forelimb / Detailed Clinical Scores, left hind limb / Detailed Clinical Scores, right forelimb / Detailed Clinical Scores, right hind limb / Detailed Clinical Scores, score / Overall clinical score / Detailed Clinical Scores: left forelimb / Detailed Clinical Scores: left hind limb / Detailed Clinical Scores: right forelimb / Detailed Clinical Scores: right hind limb / Detailed Clinical Scores: score: CIA rats; for Detailed Clinical Scores, left forelimb / Detailed Clinical Scores, left hind limb / Detailed Clinical Scores, right forelimb / Detailed Clinical Scores, right hind limb / Detailed Clinical Scores, score / Detailed Clinical Scores: left forelimb / Detailed Clinical Scores: left hind limb / Detailed Clinical Scores: right forelimb / Detailed Clinical Scores: right hind limb / Detailed Clinical Scores: score: individual animals ID 1-8; for Overall clinical score: individual animals #1-8; for Mean animal paw volume ± SD: group mean; for Animal paw volume percent change: individual animals
Protocol: Prior to be randomly placed in treatment groups, animals were weighed, and paw volume was measured. Once randomly assigned to treatment groups, on Day 0, animals in groups 2-9 were immunized by subcutaneous injection at the base of the tail.
The immunization comprised 100 μL of the CFA+Collagen emulsion (prepared according to the method in Experimental Method A). Animals in group one received no immunization. Seven days after the first injection, animals in groups 2-9 received a booster immunization comprising 200 μL of the IFA+Collagen emulsion (prepared according to the method in Experimental Method A).
Starting on Day 0, animals in group 1 and 2 were administered daily doses of the vehicle per os (P.O.) for 21 days. […] The twice daily doses for animals in groups 4-9 were 8 hours apart (e.g., the first dose at 8:00 AM and the second dose at 4:00 PM).
Body weight of all animals was recorded daily for the 21-day period. Blind clinical scores on all four limbs were conducted for all animals in the study. Animals were assessed prior to receiving their first dose of the compound or control, and scores for each limb were combined to a total daily score for each animal. Clinical score assessments were performed on Day 0, 6, 12, 13, 14, 15, 18, 19, and 21 (for a total of 9 daily scores).
Paw volume was recorded for each animal on Day 0, 6, 12, 13, 14, 15, 18, 19, and 21 (for a total of 9 measurements). To measure paw volume, animals were gently held with one hand while the hind paw was placed into a plethysmometer with the other hand. Lipid displacement by the paw was recorded and used to represent paw volume.
All data measured and recorded was analyzed using SPSS 16.0 software. Groups were compared using one-way ANOVA and significance was set at p<0.05.

Structure (SMILES): C[C@@H]1C[C@H]2[C@@H]3CCC4=CC(=O)C=C[C@]4(C)[C@@]3(F)[C@@H](O)C[C@]2(C)[C@@]1(O)C(=O)CO [dexamethasone]
- Average detailed clinical score, left forelimb (Day 13): 0.00
- Average detailed clinical score, left hind limb (Day 13): 0.00
- Average detailed clinical score, right forelimb (Day 13): 0.00
- Average detailed clinical score, right hind limb (Day 13): 0.00
- Average detailed clinical score, score (Day 13): 0.00
- Mean overall clinical score ± SD (Day 13): 0 ± 0
- Detailed Clinical Scores, left forelimb (Day 13): 0
- Detailed Clinical Scores, left hind limb (Day 13): 0
- Detailed Clinical Scores, right forelimb (Day 13): 0
- Detailed Clinical Scores, right hind limb (Day 13): 0
- Detailed Clinical Scores, score (Day 13): 0
- Overall clinical score (Day 13): 0
- Mean animal paw volume ± SD (Day 14, L paw): 1.27 mL
- Animal paw volume percent change (Day 14, L paw): −8.18% and −5.36% and 0.00% and −4.53% and −1.54% and −5.00% and −3.75% and −8.46%
- Mean animal paw volume ± SD (Day 14, R paw): 1.26 mL
- Animal paw volume percent change (Day 14, R paw): −5.62% and −2.70% and 0.00% and −8.92% and −2.33% and −7.72% and −5.17% and −8.06%
- Average detailed clinical score, left forelimb (Day 14): 0.00
- Average detailed clinical score, left hind limb (Day 14): 0.00
- Average detailed clinical score, right forelimb (Day 14): 0.00
- Average detailed clinical score, right hind limb (Day 14): 0.00
- Average detailed clinical score, score (Day 14): 0.00
- Mean overall clinical score ± SD (Day 14): 0 ± 0
- Detailed Clinical Scores, left forelimb (Day 14): 0
- Detailed Clinical Scores, left hind limb (Day 14): 0
- Detailed Clinical Scores, right forelimb (Day 14): 0
- Detailed Clinical Scores, right hind limb (Day 14): 0
- Detailed Clinical Scores, score (Day 14): 0
- Overall clinical score (Day 14): 0
- Mean animal paw volume ± SD (Day 15, L paw): 1.26 mL
- Animal paw volume percent change (Day 15, L paw): −8.92% and −7.28% and −2.17%
- Mean animal paw volume ± SD (Day 15, R paw): 1.26 mL
- Animal paw volume percent change (Day 15, R paw): −6.74% and −4.25% and −1.45%
- Average detailed clinical score, left forelimb (Day 15): 0.00
- Average detailed clinical score, left hind limb (Day 15): 0.00
- Average detailed clinical score, right forelimb (Day 15): 0.00
- Average detailed clinical score, right hind limb (Day 15): 0.00
- Average detailed clinical score, score (Day 15): 0.00
- Mean overall clinical score ± SD (Day 15): 0 ± 0
- Detailed Clinical Scores: left forelimb (Day 15): 0
- Detailed Clinical Scores: left hind limb (Day 15): 0
- Detailed Clinical Scores: right forelimb (Day 15): 0
- Detailed Clinical Scores: right hind limb (Day 15): 0
- Detailed Clinical Scores: score (Day 15): 0
- Overall clinical score (Day 15): 0
- Mean animal paw volume ± SD (Day 18, L paw): 1.29 mL
- Animal paw volume percent change (Day 18, L paw): −5.20% and −6.51% and 4.33%
- Mean animal paw volume ± SD (Day 18, R paw): 1.29 mL
- Animal paw volume percent change (Day 18, R paw): −4.49% and −4.63% and 4.36%
- Average detailed clinical score, left forelimb (Day 18): 0.00
- Average detailed clinical score, left hind limb (Day 18): 0.00
- Average detailed clinical score, right forelimb (Day 18): 0.00
- Average detailed clinical score, right hind limb (Day 18): 0.00
- Average detailed clinical score, score (Day 18): 0.00
- Mean overall clinical score ± SD (Day 18): 0 ± 0
- Detailed Clinical Scores: left forelimb (Day 18): 0
- Detailed Clinical Scores: left hind limb (Day 18): 0
- Detailed Clinical Scores: right forelimb (Day 18): 0
- Detailed Clinical Scores: right hind limb (Day 18): 0
- Detailed Clinical Scores: score (Day 18): 0
- Overall clinical score (Day 18): 0
- Mean animal paw volume ± SD (Day 19, L paw): 1.29 mL
- Animal paw volume percent change (Day 19, L paw): −5.20% and −6.90%
- Mean animal paw volume ± SD (Day 19, R paw): 1.28 mL
- Animal paw volume percent change (Day 19, R paw): −5.24% and −6.18%
- Average detailed clinical score, left forelimb (Day 19): 0.00
- Average detailed clinical score, left hind limb (Day 19): 0.00
- Average detailed clinical score, right forelimb (Day 19): 0.00
- Average detailed clinical score, right hind limb (Day 19): 0.00
- Average detailed clinical score, score (Day 19): 0.00
- Mean overall clinical score ± SD (Day 19): 0 ± 0
- Detailed Clinical Scores: left forelimb (Day 19): 0
- Detailed Clinical Scores: left hind limb (Day 19): 0
- Detailed Clinical Scores: right forelimb (Day 19): 0
- Detailed Clinical Scores: right hind limb (Day 19): 0
- Detailed Clinical Scores: score (Day 19): 0
- Overall clinical score (Day 19): 0
- Mean animal paw volume ± SD (Day 21, L paw): 1.28 mL
- Animal paw volume percent change (Day 21, L paw): −6.32% and −6.90%
- Mean animal paw volume ± SD (Day 21, R paw): 1.29 mL
- Animal paw volume percent change (Day 21, R paw): −5.99% and −6.18%
- Average detailed clinical score, left forelimb (Day 21): 0.00
- Average detailed clinical score, left hind limb (Day 21): 0.00
- Average detailed clinical score, right forelimb (Day 21): 0.00
- Average detailed clinical score, right hind limb (Day 21): 0.00
- Average detailed clinical score, score (Day 21): 0.00
- Mean overall clinical score ± SD (Day 21): 0 ± 0
- Detailed Clinical Scores: left forelimb (Day 21): 0
- Detailed Clinical Scores: left hind limb (Day 21): 0
- Detailed Clinical Scores: right forelimb (Day 21): 0
- Detailed Clinical Scores: right hind limb (Day 21): 0
- Detailed Clinical Scores: score (Day 21): 0
- Overall clinical score (Day 21): 0
